{"source": "patent US10517889B2", "about": "“Modulators of SMAD7 expression” (Ionis Pharmaceuticals, Inc., priority 2017, dated 2019)", "key": {"[1]": {"experiment": "Tissue and organ histopathology after oral gavage in CD-1 mice (Example 7)", "type": "in vivo", "conditions": "daily oral gavage 500 mg/kg for one month, in words", "description": "Groups of 7-8 week old male CD-1 mice were given an oral gavage dose once daily for 4 weeks of 500 mg/kg of Ionis SMAD7 oligonucleotides. Each group contained 8 mice. One group of male CD-1 mice was administered saline by oral gavage daily.\nHistopathology evaluations were performed on the mice treated with Ionis oligonucleotides to evaluate any tissue damage in the liver (with gallbladder), kidneys, heart, spleen, thymus, mesenteric lymph nodes, and different parts of the GI tract, including duodenum, ileum, and colon (proximal and distal). Tissues were collected and fixed in 10% neutral-buffered formalin, embedded in paraffin, sectioned, and stained with hematoxylin and eosin. All the tissues were histologically unremarkable in all mice."}, "[2]": {"experiment": "Organ weights after oral gavage in beagle dogs (Example 12)", "conditions": "200 mg by oral gavage for 4 weeks, day 30, in words", "procedure": "(§1) Groups of 24-25 week old male beagle dogs were administered 200 mg Ionis human SMAD7 oligonucleotide by oral gavage once a week for 4 weeks. There were 4 animals per group. A control group of dogs received oral administration of distilled water. Dogs were sacrificed on day 30 approximately 48 hours after the final dose and organs and plasma were harvested for further analysis."}, "murine Smad7 mRNA": {"tested_on": "murine Smad7 mRNA", "experiment": "Dose-dependent inhibition of murine Smad7 mRNA in bEND cells, electroporation (Example 5, Study 2)", "type": "cell-based, mouse", "conditions": "in words", "description": "Many of the Ionis designed oligonucleotides as well as ION 736697/Mongersen are complementary to mouse Smad7 mRNA. […] After a treatment period of approximately 16 hours, the cells were washed and lyzed and RNA on 384-well Pall plates with DNase I treatment. Smad7 mRNA levels were measured by quantitative real-time PCR. Primer probe set RTS1114 (forward sequence […], designated herein as SEQ ID NO: 8; reverse sequence […], designated herein as SEQ ID NO: 9; probe sequence […], designated herein as SEQ ID NO: 10) was used to measure murine Smad7 mRNA levels. Smad7 mRNA levels were adjusted according to total RNA content, as measured by RIBOGREEN®. Results are presented as percent inhibition of Smad7 mRNA expression, relative to untreated control cells.\nMany of the Ionis oligonucleotides had greater potency than ION 736697/Mongersen."}, "[3]": {"tested_on": "human peripheral blood mononuclear cells (PBMCs)", "experiment": "Human PBMC activation assay, cytokine levels (IL-10, IL-6, MCP-1, TNF-α) in supernatant after 24 hours (Example 9)", "conditions": "human PBMCs, 24 hours, in words"}, "[4]": {"experiment": "Plasma chemistry markers after oral gavage in beagle dogs (Example 12)", "conditions": "200 mg by oral gavage for 4 weeks, day 30, in words", "procedure": "The study was conducted to evaluate the tolerability and pharmacodynamics of select human SMAD7 antisense oligonucleotides in beagle dogs following 4 weeks of treatment. The dogs were administered oligonucleotides by oral gavage.\nas §1\nTo evaluate the effect of Ionis SMAD7 oligonucleotides on liver and kidney function, approximately 1.5 mL of blood samples were collected and put into tubes without anticoagulant for serum separation. The tubes were kept at room temperature for a minimum of 90 min and then centrifuged (approximately 3,000 rpm for 10 min) to obtain serum. Plasma levels of transaminases, albumin, bilirubin, and BUN were measured using an automated clinical chemistry analyzer (Toshiba 200FR Neo chemistry analyzer, Toshiba Co., Japan)."}, "human SMAD7 mRNA": {"tested_on": "human SMAD7 mRNA", "experiment": "Dose-dependent inhibition of human SMAD7 mRNA expression in A431 cells, oligonucleotide added without transfection (Example 5, Study 1)", "type": "cell-based", "conditions": "SMAD7 mRNA, in words", "description": "The newly designed compounds disclosed herein are cEt-modified antisense oligonucleotides. […] The studies described below show a comparison of select cEt-modified gapmers and ION0736697/Mongersen.\nA431 cells were plated in collagen I-coated 96-well plates in DMEM with […]. Immediately after plating, 0.08 μM, 0.25 μM, 0.74 μM, 2.22 μM, 6.67 μM, or 20.00 μM concentrations of antisense oligonucleotide were added. The plates were shaken briefly before incubating at 37° C. and 10% CO2. After a treatment period of approximately 48 hours, the cells were washed and lyzed and RNA on 384-well Pall plates with DNase I treatment. SMAD7 mRNA levels were measured by quantitative real-time PCR. Primer probe set RTS5062 was used to measure human SMAD7 mRNA levels. SMAD7 mRNA levels were adjusted according to total RNA content, as measured by RIBOGREEN®. Results are presented as percent inhibition of SMAD7 mRNA expression, relative to untreated control cells.\nAll Ionis oligonucleotides had greater potency than ION 736697/Mongersen."}, "[5]": {"experiment": "Pharmacokinetics: oligonucleotide concentration in tissues after oral gavage in beagle dogs (Example 12)", "type": "in vivo", "description": "There were 4 animals per group.\nCanine tissue exposure following oral administration of the Ionis SMAD7 oligonucleotides was measured in various organs and intestinal tissues.\nPlasma concentrations of Ionis oligonucleotides were also measured on Day 28 at various time points."}, "mouse Smad7 mRNA [6]": {"tested_on": "mouse Smad7 mRNA", "experiment": "Murine Smad7 mRNA expression after subcutaneous administration in BALB/c mice (Example 10)", "type": "in vivo", "conditions": "50 mg/kg subcutaneous once a week for 4 weeks, 24 hours after last dose", "description": "The objective of this study was to evaluate the efficacy of Ionis SMAD7 antisense oligonucleotides compared to ION 736697/Mongersen in BALB/c mice following 4 weeks of treatment. Both ION 830025 and ION 798781 are cross-reactive with mouse Smad7 mRNA.\nGroups of BALB/c mice were subcutaneously administered 50 mg/kg of Ionis SMAD7 oligonucleotides once a week for 4 weeks. Each group contained 4 mice. One group of mice was administered PBS once a week for 4 weeks. […]"}, "mouse Smad7 mRNA [7]": {"tested_on": "mouse Smad7 mRNA", "experiment": "Murine Smad7 mRNA expression after oral administration in BALB/c mice (Example 11)", "type": "in vivo", "conditions": "orally 500 mg/kg/day for 3 weeks, in words", "description": "The objective of this study was to evaluate the efficacy of Ionis SMAD7 antisense oligonucleotides in BALB/c mice following daily oral administration. The Ionis oligonucleotides are cross-reactive with mouse Smad7 mRNA.\nGroups of BALB/c mice were orally administered 500 mg/kg/day for 3 weeks of human Smad7 oligonucleotides, ION 790615, ION 798781, or ION 830025, or mouse Smad7 oligonucleotide, ION 772797 (a 3-10-3 cEt gapmer with phosphorothioate backbone and sequence […]; designated herein as SEQ ID NO: 2743). One group of mice was orally administered PBS daily for 3 weeks. Each group contained 4 mice.\nTo evaluate the efficacy of the oligonucleotides, murine Smad7 mRNA expression in the liver, kidneys, duodenum, ileum, and colon was measured using primer probe set RTS1114."}, "[8]": {"experiment": "Plasma chemistry markers after subcutaneous administration in beagle dogs (Example 8)", "conditions": "30 mg/kg subcutaneously, day 31, in words", "procedure": "Groups of 24-25 week old male beagle dogs were injected subcutaneously with 30 mg/kg ION Ionis oligonucleotide. There were 4 animals per group. Dogs were injected every two days for the first week (day 1, 3, and 5) and once weekly thereafter (days 8, 15, 22, and 29). A control group of dogs received subcutaneous injections of PBS. Dogs were sacrificed on day 31 approximately 48 hours after the final dose and organs and plasma were harvested for further analysis.\nTo evaluate the effect of Ionis SMAD7 oligonucleotides on liver and kidney function, plasma levels of transaminases, albumin, creatine and BUN were measured using an automated clinical chemistry analyzer (Toshiba 200FR Neo chemistry analyzer, Toshiba Co., Japan)."}, "mouse Smad7 mRNA [9]": {"tested_on": "mouse Smad7 mRNA", "experiment": "Pharmacology: mouse Smad7 mRNA expression in liver, kidney, duodenum, ileum and colon after subcutaneous administration in CD-1 mice (Example 6)", "type": "in vivo", "conditions": "50 mg/kg subcutaneously twice a week for 7 weeks, in words", "description": "Groups of 8-9 week old male CD-1 mice were injected subcutaneously twice a week for 7 weeks with 50 mg/kg of Ionis oligonucleotides (100 mg/kg/week dose). Each group contained 4 mice. One group of male CD-1 mice was injected subcutaneously twice a week for 7 weeks with PBS. Plasma was collected for analysis on day 28.\nThe pharmacological activity of the Ionis oligonucleotides in mice was assessed by measuring mouse Smad7 mRNA expression in liver, kidney, duodenum, ileum, and colon at necropsy.\nTissue samples from all mice were analyzed for Smad7 mRNA expression using the primer probe set HTS7555 (forward sequence […], designated SEQ ID NO: 2737; reverse sequence […], designated SEQ ID NO: 2738; probe sequence […], designated SEQ ID NO: 2739), which was normalized to mRNA levels of the housekeeping gene, GAPDH. One-way ANOVA with Dunnet's comparison test was used for statistical analysis."}}, "data": [{"substance": "ION 830025 (antisense TTTGTAAATCGAAAGC; 3-10-3 cEt gapmer, phosphorothioate, further chemistry not given here) [sodium salt]", "values": [{"measurement": "Histopathology: oligonucleotide-related tissue alterations", "setting": "[1]", "value": "not associated with any antisense oligonucleotide-related tissue alterations"}, {"measurement": "Tolerability (organ weights)", "setting": "[2]", "value": "very well tolerated"}, {"measurement": "Potency compared with ION 736697/Mongersen", "setting": "murine Smad7 mRNA", "value": "more potent than ION 736697/Mongersen"}, {"measurement": "Cytokine and chemokine production (immunostimulatory profile)", "setting": "[3]", "value": "minimal cytokine and chemokine production which was similar or less than the negative control ASO"}, {"measurement": "Tolerability (plasma chemistry markers)", "setting": "[4]", "value": "very well tolerated"}, {"measurement": "Potency/efficacy compared with ION 736697/Mongersen", "setting": "human SMAD7 mRNA", "value": "more efficacious than ION 736697/Mongersen"}, {"measurement": "Tissue accumulation of oligonucleotide", "setting": "[5]; 200 mg by oral gavage for 4 weeks, in words", "value": "Distal colon accumulation was detected"}, {"measurement": "Oligonucleotide concentration in tissues, Distal colon", "setting": "[5]; 200 mg oral gavage for 4 weeks, distal colon", "value": 0.1, "unit": "µg/g"}, {"measurement": "Oligonucleotide concentration in tissues, Duodenum", "setting": "[5]; 200 mg oral gavage for 4 weeks, duodenum", "value": 0.8, "unit": "µg/g"}, {"measurement": "Oligonucleotide concentration in tissues, Ileum", "setting": "[5]; 200 mg oral gavage for 4 weeks, ileum", "value": 0.3, "unit": "µg/g"}, {"measurement": "Oligonucleotide concentration in tissues, Kidney", "setting": "[5]; 200 mg oral gavage for 4 weeks, kidney", "value": 48.1, "unit": "µg/g"}, {"measurement": "Oligonucleotide concentration in tissues, Liver", "setting": "[5]; 200 mg oral gavage for 4 weeks, liver", "value": 7.8, "unit": "µg/g"}, {"measurement": "Oligonucleotide concentration in tissues, Proximal colon", "setting": "[5]; 200 mg oral gavage for 4 weeks, proximal colon", "value": 0.2, "unit": "µg/g"}, {"measurement": "Mouse Smad7 mRNA expression (% inhibition), Colon", "setting": "mouse Smad7 mRNA [6]; colon", "value": 32, "unit": "% inhibition"}, {"measurement": "Mouse Smad7 mRNA expression (% inhibition), Duodenum", "setting": "mouse Smad7 mRNA [6]; duodenum", "value": 26, "unit": "% inhibition"}, {"measurement": "Mouse Smad7 mRNA expression (% inhibition), Ileum", "setting": "mouse Smad7 mRNA [6]; ileum", "value": 14, "unit": "% inhibition"}, {"measurement": "Mouse Smad7 mRNA expression (% inhibition), Kidney", "setting": "mouse Smad7 mRNA [6]; kidney", "value": 5, "unit": "% inhibition"}, {"measurement": "Mouse Smad7 mRNA expression (% inhibition), Liver", "setting": "mouse Smad7 mRNA [6]; liver", "value": 46, "unit": "% inhibition"}, {"measurement": "Efficacy in reducing Smad7 mRNA expression", "setting": "mouse Smad7 mRNA [7]", "value": "efficacious in reducing Smad7 mRNA expression"}, {"measurement": "Tolerability (plasma chemistry markers)", "setting": "[8]", "value": "well tolerated"}, {"measurement": "Smad7 mRNA reduction in tissues", "setting": "mouse Smad7 mRNA [9]", "value": "significant Smad7 mRNA reduction in various tissues"}]}]}
